One test concerns the target T1, human M4 receptor (Homo sapiens, UniProt P08173).
T1 construct: expressed in transfected cells; host or cells: CHO-K1 cells (membrane preparation)
T1 sequence (P08173 1-479): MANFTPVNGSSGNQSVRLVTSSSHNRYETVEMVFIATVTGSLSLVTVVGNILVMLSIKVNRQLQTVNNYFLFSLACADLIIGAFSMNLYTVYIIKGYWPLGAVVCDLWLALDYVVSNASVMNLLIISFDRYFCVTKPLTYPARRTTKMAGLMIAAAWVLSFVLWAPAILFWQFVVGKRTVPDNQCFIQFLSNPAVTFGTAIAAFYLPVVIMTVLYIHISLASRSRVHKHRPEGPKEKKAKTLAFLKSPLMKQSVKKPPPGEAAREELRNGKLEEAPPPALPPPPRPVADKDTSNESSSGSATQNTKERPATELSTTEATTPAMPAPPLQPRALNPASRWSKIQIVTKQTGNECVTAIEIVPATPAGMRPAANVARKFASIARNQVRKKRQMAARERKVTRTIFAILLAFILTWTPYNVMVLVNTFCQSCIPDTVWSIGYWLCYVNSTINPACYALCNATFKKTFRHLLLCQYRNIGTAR
The experiment in a line: M4 GTPγS PAM assay. It is filed as biochemical. The following applies: membranes of CHO-K1 cells stably expressing human M4; EC20 acetylcholine 40 nM. The protocol: The M4 GTPγS PAM method was used. Membranes were prepared for GTPgS binding assays from CHO-K1 cells stably expressing human M4 receptor. Briefly, cells were grown in 5-layer cell culture flasks. Cells were washed with 50 mL of PBS and then dissociated with 0.05% trypsin. Dissociated cells were then collected by centrifugation at 650×g for 8 minutes at 4° C. Pellets were washed again in PBS by centrifugation and resuspended in 30 mL of 20 mM HEPES, 10 mM EDTA, pH 7.4. After sitting on ice for 30 min, membranes were collected by centrifugation at 50000×g for 15′ at 4° C., resuspended in 30 mL of 20 mM HEPES, 0.1 mM EDTA, pH 7.4 and collected again by centrifugation. Pellets were then washed twice by centrifugation in 30 mL of 20 mM HEPES, pH 7.4, and stored at −80° C. until the day of the assay. On the day of the assay, pellets were thawed on ice and resuspended in 1 mL of 20 mM HEPES, pH 7.4, 10 mM MgCl2, 100 mM NaCl using dounce homogenization. Membrane protein concentration is determined by BCA protein assay (Promega, Madison, WI) according to Promega guidelines.
On the day of the assay, serial dilutions of test PAM compounds were brought up in assay buffer (20 mM HEPES, 10 mM MgCl2, 100 mM NaCl) at 4× final assay concentration. […] of membrane homogenates (containing […] of membrane protein) were prepared in assay buffer supplemented with GDP at 4× final assay concentration (final assay concentration of GDP is 5 μM for M2 and 0.1 μM for M4) and dispensed into 96 well polypropylene, U-bottom Greiner plates. […] of vehicle or test PAM compound at 4× of final assay concentration diluted in the assay buffer were added to membrane and plates are incubated for 10-15 minutes at room temperature with gentle shaking. Then, […] of EC20 acetylcholine in assay buffer at 4× final assay concentration was added to assay plates (EC20 final assay concentrations was 40 nM for human M4).
Plates were then incubated, with shaking, for an additional 10-15 minutes. 25 mL of 0.4 nM ^35S-GTP (Perkin Elmer, Waltham, MA) in assay buffer was added to assay mixtures. The binding reaction is left on the shaker for 1 hour at room temperature. Membranes in assay reactions were then transferred to GF/C filter plates (Unifilter, Perkin Elmer) and washed three times using a FilterMate Harvester (Perkin Elmer) with cold assay buffer containing no GDP. Filter plates were then dried at 40° C. overnight followed by the addition of […] of Beta Plate Scintillation liquid. Plates are top and bottom sealed before being read on TopCount scintillation counter (Perkin Elmer, Waltham, MA).

Another test has as its target T2, hM4 receptors (Homo sapiens, UniProt P08173).
T2 construct: expressed in transfected cells; host or cells: CHO cells
T2 sequence (P08173 1-479): T1 sequence (P08173 1-479)
In words: Human M4 PAM pERK assay. It is filed as cell-based. As to conditions: CHO cells expressing hM4; with EC20 of acetylcholine (10 nM final). How it is done: Chinese hamster ovary (CHO) cells expressing either hM4 or rM4 receptors were frozen in assay ready vials (5×10^6 cells/vial) after bulking-up in culture. The day before an assay, vial(s) were thawed and cells seeded in 384 well white proxiplates at 1000/well for hM4 cells and at 2000/well for rM4 cells, in 10 μL of growth media (Hams/F12 with glutamax and 10% FCS) and incubated overnight at 37° C./5% CO2.
On the following morning, the growth media was removed by ‘flicking out’ over a bin, patting the inverted plate onto tissue, and then replacing with 10 μL of wash media (Hams/F12 with glutamax and 8 mM HEPES, NB: serum free). Then, the wash media was removed in the same way and replaced with 8 μL/well of the serum free media. Plates were then re-incubated for a further 4 hours at 37° C./5% CO2.
Compounds for testing were solubilized to 10 mM in DMSO and compound addition plates, consisting of ten-point concentration response curves (CRC) in duplicate points (10 μM top concentration, ½ log dilution series), were prepared by acoustic dispensing and the compound management group.
After the 4-hour incubation in serum free media, a 4 μL aliquot of the 3× compound solution containing an EC20 of acetylcholine (10 nM final concentration) was added to the cell plate using a 384 well plate to plate transfer. Then, the plate lid was replaced, and the cells incubated for 5 mins at 37° C./5% CO2. Following this final incubation, all cellular processes were stopped by the addition of 4 μL/well of lysis and blocking buffer and plates were incubated for 30 minutes at RT on an orbital shaker (gentle setting). Then, a final addition of 4 μL/well of antibody detection mix, containing both the Europium-Cryptate (donor) and d2 (acceptor) tagged detection components, was added followed by a further 2-hour incubation at RT, and then the plate was read using a TR-FRET (time resolved fluorescence resonance energy transfer) based protocol.

Results on two compounds are retold here after patent publication US20260209219A1, “SUBSTITUTED TETRAHYDROPYRROLO-PYRIDINONE COMPOUNDS AND THEIR USE IN TREATING MEDICAL CONDITIONS” (Karuna Therapeutics, Inc., priority 2022, published 2026).

For orientation: EC50 means the midpoint of the concentration-response curve. Low readings indicate greater potency, high ones weaker potency.

As to `Cc1cc(=O)n(C)c2c1CN(C(=O)CC1CC1c1ccc(C(F)(F)F)cc1)C2` (single isomer, unassigned) [Compound I-7], the EC50 is less than 0.1 µM on human M4 receptor and 0.1 to 0.5 µM on hM4 receptors.

On to `Cc1c2c(n(C)c(=O)c1F)CN(C(=O)CC1CC1c1ccc(C(F)(F)F)cc1)C2` (stereo not shown) [Compound I-26], for which the EC50 at human M4 receptor and on hM4 receptors was less than 0.1 µM each time.
